Experimental data taken from US8722720B2, “Imidazole derivatives as IDO inhibitors” (NewLink Genetics Corporation, priority 2010, dated 2014).

target: T1, purified human IDO protein (Homo sapiens, UniProt P14902); assay: Enzymatic IDO assay (kynurenine production, absorbance at 480 nm); assay type: biochemical; settings: hIDO IC50, recombinant human IDO; values reported in ranges
T1 construct: 2 extra amino acids (linker from the BglII cloning site of pQE70); made in house; host or cells: E. coli M15(pREP4) with plasmid pQE70-hIDO
T1 sequence (P14902 whole entry P110S/E119G): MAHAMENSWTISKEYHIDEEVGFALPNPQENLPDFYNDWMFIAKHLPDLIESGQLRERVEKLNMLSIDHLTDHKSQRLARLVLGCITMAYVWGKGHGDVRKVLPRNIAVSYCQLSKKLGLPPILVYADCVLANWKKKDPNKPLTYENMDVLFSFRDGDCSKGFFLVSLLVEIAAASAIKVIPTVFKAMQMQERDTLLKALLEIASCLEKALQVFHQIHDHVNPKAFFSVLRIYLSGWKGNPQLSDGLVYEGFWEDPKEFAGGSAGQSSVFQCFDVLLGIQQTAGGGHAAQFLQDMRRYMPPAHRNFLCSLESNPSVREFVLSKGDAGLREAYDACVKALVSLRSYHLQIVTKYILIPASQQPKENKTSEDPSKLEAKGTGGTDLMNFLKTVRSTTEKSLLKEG
Experimental: The inhibitors were initially diluted in DMSO at 100 mM and were diluted in potassium phosphate 50 mM, added to the reaction mixture at final concentrations raging from 1 mM to 5 nM and preincubated with the enzyme for 5 min at 25° C. The reaction was started by addition of L-tryptophan to 200 μM and incubated 15 min at 37° C. The reaction was stopped by addition of 0.5 vol of 30% trichloroacetic acid and incubated 30 min at 60° C. to hydrolyze N-formylkynurenine to kynurenine. The reaction was centrifuged at 3400 g for 5 min to remove precipitated protein and the supernatant was reacted with 2% (w/v) of p-dimethylaminobenzaldehyde in acetic acid. The reaction was incubated 10 min at 25° C. and read at 480 nm in a spectrophotometer. […] Nonlinear regressions and determination of the IC50 values were performed using the GraphPad Prism 4 software.

Row | SMILES | IC50
1 | O=C1NCCN1C(=O)Oc1ccc(Cl)cc1-c1c[nH]cn1 [compound 1147, 4-chloro-2-(1H-imidazol-4-yl)phenyl 2-oxoimidazolidine-1-carboxylate] | 1 to 10 µM
2 | CC(=O)OCCN(C)C(=O)Oc1ccc(Cl)cc1-c1c[nH]cn1 [compound 1253, 2-(((4-chloro-2-(1H-imidazol-4-yl)phenoxy)carbonyl)(methyl)amino)ethyl acetate] | > 100 µM
3 | CN(C(=O)Oc1ccc(Cl)cc1-c1c[nH]cn1)c1ccccc1 [compound 1088, 4-chloro-2-(1H-imidazol-4-yl)phenyl methyl(phenyl)carbamate] | > 100 µM

same assay, conditions: recombinant human IDO; values reported in ranges; read-out: hIDO IC50

Row | SMILES | IC50
4 | c1ccc2c(-c3cnc[nH]3)cccc2c1 [compound 957, 5-(naphthalen-1-yl)-1H-imidazole] | 10 to 100 µM
5 | Oc1cccc(OCCC2CCCO2)c1-c1cnc[nH]1 (stereo not drawn) [compound 1235, 2-(1H-imidazol-5-yl)-3-(2-(tetrahydrofuran-2-yl)ethoxy)phenol] | 10 to 100 µM
6 | Nn1cncc1-c1ccccc1 [compound 1115, 5-phenyl-1H-imidazol-1-amine] | > 100 µM
7 | CC(=O)NCc1ccccc1-c1c[nH]cn1 [compound 1207, N-(2-(1H-imidazol-4-yl)benzyl)acetamide] | > 100 µM
8 | O=C(O)c1ccccc1CCOc1ccccc1-c1c[nH]cn1 [compound 1325, 2-(2-(2-(1H-imidazol-4-yl)phenoxy)ethyl) benzoic acid] | > 100 µM
9 | Clc1ccccc1CCOc1ccc(Br)cc1-c1c[nH]cn1 [compound 1021, 4-(5-bromo-2-(2-chlorophenethoxy)phenyl)-1H-imidazole] | 10 to 100 µM
10 | CC(O)(COc1ccccc1-c1c[nH]cn1)c1cccs1 (stereo not drawn) [compound 977, 1-(2-(1H-imidazol-4-yl)phenoxy)-2-(thiophen-2-yl)propan-2-ol] | 10 to 100 µM
11 | CC(Cc1ccccc1Cl)Oc1ccccc1-c1c[nH]cn1 (stereo not drawn) [compound 1043, 4-(2-(1-(2-chlorophenyl)propan-2-yloxy)phen-yl)-1H-imidazole] | 1 to 10 µM
12 | O=C(Cc1cncnc1)Nc1ccc(CCOc2ccccc2-c2c[nH]cn2)cc1 [compound 1239, N-(4-(2-(2-(1H-imidazol-4-yl)phenoxy)ethyl)phenyl)-2-(pyrimidin-5-yl)acetamide] | 1 to 10 µM
13 | FC(F)(F)c1ccc(COc2ccccc2-c2c[nH]cn2)cc1 [compound 1023, 4-(2-(4-(trifluoromethyl)benzyloxy)phenyl)-1H-imidazole] | > 100 µM
14 | Oc1ccccc1-c1cnco1 [compound 1139, 2-(oxazol-5-yl)phenol] | 10 to 100 µM
15 | Oc1ccc(Cl)cc1-c1cncn1-c1cccnc1 [compound 1122, 4-chloro-2-(1-(pyridin-3-yl)-1H-imidazol-5-yl)phenol] | 10 to 100 µM
16 | Oc1cccc(OCCc2ccncc2)c1-c1cnc[nH]1 [compound 1238, 2-(1H-imidazol-5-yl)-3-(2-(pyridin-4-yl)ethoxy) phenol] | 10 to 100 µM
17 | COc1cccc(-c2c[nH]cn2)n1 [compound 1009, 2-(1H-imidazol-4-yl)-6-methoxypyridine] | > 100 µM
18 | O=C(Cc1cccc([N+](=O)[O-])c1)Nc1ccc(CCOc2ccccc2-c2c[nH]cn2)cc1 [compound 1241, N-(4-(2-(2-(1H-imidazol-4-yl)phenoxy)ethyl)phenyl)-2-(3-nitrophenyl)acetamide] | 1 to 10 µM
19 | Clc1ccc2c(-c3c[nH]cn3)ccnc2c1 [compound 969, 7-chloro-4-(1H-imidazol-4-yl)quinoline] | > 100 µM
20 | Fc1cccc(-c2c[nH]cn2)c1OCCc1ccccc1Cl [compound 1296, 4-(2-(2-chlorophenethoxy)-3-fluorophenyl)-1H-imidazole] | 10 to 100 µM
21 | c1cnc2[nH]cc(-c3c[nH]cn3)c2c1 [compound 964, 3-(1H-imidazol-4-yl)-1H-pyrrolo[2,3-b]pyridine] | > 100 µM
22 | O=C(O)c1ccccc1C(=O)COc1ccccc1-c1c[nH]cn1 [compound 979, 2-(2-(2-(1H-imidazol-4-yl)phenoxy)acetyl) benzoic acid] | > 100 µM
23 | CC(C)(C)CC(=O)Nc1ccc(CCOc2ccccc2-c2c[nH]cn2)cc1 [compound 1103, N-(4-(2-(2-(1H-imidazol-4-yl)phenoxy)ethyl)phenyl)-3,3-dimethylbutanamide] | 1 to 10 µM
24 | O=C(Cc1cccs1)N1CCC(CCOc2ccccc2-c2c[nH]cn2)CC1 [compound 1176, 1-(4-(2-(2-(1H-imidazol-4-yl)phenoxy)ethyl)piperidin-1-yl)-2-(thiophen-2-yl)ethanone] | 1 to 10 µM
25 | c1cnc2c(-c3c[nH]cn3)cccc2c1 [compound 952, 8-(1H-imidazol-4-yl)quinoline] | > 100 µM
26 | C1=CCC(CCOc2ccccc2-c2c[nH]cn2)CC1 (stereo not drawn) [compound 1191, 4-(2-(2-(cyclohex-3-en-1-yl)ethoxy)phenyl)-1H-imidazole] | 1 to 10 µM

Row | SMILES | IC50
27 | O=C(O)CCSc1nc(-c2ccccc2)c(-c2ccccc2)[nH]1 [compound 1079, 3-(4,5-diphenyl-1H-imidazol-2-ylthio)propanoic acid] | > 100 µM
28 | O=C(Nc1cccc(OC2CCOC2)c1)Nc1ccc(CCOc2ccccc2-c2c[nH]cn2)c(Cl)c1 (stereo not drawn) [compound 1346, 1-(4-(2-(2-(1H-imidazol-4-yl)phenoxy)ethyl)-3-chlorophenyl)-3-(3-(tetrahydrofuran-3-yloxy)phenyl)urea] | 1 to 10 µM
29 | Oc1ncccc1-c1c[nH]cn1 [compound 1015, 3-(1H-imidazol-4-yl)pyridin-2-ol] | > 100 µM
30 | c1nc(-c2ccc3c(c2)OCCO3)c[nH]1 [compound 971, 4-(2,3-dihydrobenzo[b][1,4]dioxin-6-yl)-1H-imidazole] | > 100 µM
31 | Oc1c(Cl)cc(Cl)c(OCCc2ccccc2Cl)c1-c1cnc[nH]1 [compound 1111, 4,6-dichloro-3-(2-chlorophenethoxy)-2-(1H-imidazol-5-yl)phenol] | 10 to 100 µM
32 | Brc1ccc(OCCC2CCCCC2)c(-c2c[nH]cn2)c1 [compound 1016, 4-(5-bromo-2-(2-cyclohexylethoxy)phenyl)-1H-imidazole] | 10 to 100 µM
33 | N[C@H]1CCCC[C@H]1NC(=O)Nc1ccc(CCOc2ccccc2-c2c[nH]cn2)c(Cl)c1 (racemic) [compound 1368, 1-(4-(2-(2-(1H-imidazol-4-yl)phenoxy)ethyl)-3-chlorophenyl)-3-(±(1R,2S)-2-aminocyclohexyl)urea] | < 1 µM
34 | CC(C)(C)C(=O)Oc1ccc(Br)cc1-c1c[nH]cn1 [compound 967, 4-bromo-2-(1H-imidazol-4-yl)phenyl pivalate] | 1 to 10 µM
35 | CNC(=O)c1ccccc1CCOc1ccccc1-c1c[nH]cn1 [compound 1332, 2-(2-(2-(1H-imidazol-4-yl)phenoxy)ethyl)-N-methylbenzamide] | > 100 µM
36 | O=C(Cc1ccccc1)N1CCC(CCOc2ccccc2-c2c[nH]cn2)CC1 [compound 1186, 1-(4-(2-(2-(1H-imidazol-4-yl)phenoxy)ethyl)piperidin-1-yl)-2-phenylethanone] | 1 to 10 µM
37 | CCC(O)(COc1ccccc1-c1c[nH]cn1)c1cccs1 (stereo not drawn) [compound 976, 1-(2-(1H-imidazol-4-yl)phenoxy)-2-(thiophen-2-yl)butan-2-ol] | 10 to 100 µM
38 | CC(C)(C)OC(=O)Nc1ccc(CCOc2ccccc2-c2c[nH]cn2)cc1 [compound 1046, tert-butyl 4-(2-(2-(1H-imidazol-4-yl)phenoxy)ethyl)phenylcarbamate] | 1 to 10 µM
39 | O=C(Cc1ncccn1)Nc1ccc(CCOc2ccccc2-c2c[nH]cn2)cc1 [compound 1227, N-(4-(2-(2-(1H-imidazol-4-yl)phenoxy)ethyl)phenyl)-2-(pyrimidin-2-yl)acetamide] | 1 to 10 µM
40 | O=C(CC1CCOCC1)Nc1ccc(Cl)c(CCOc2ccccc2-c2c[nH]cn2)c1 [compound 1298, N-(3-(2-(2-(1H-imidazol-4-yl)phenoxy)ethyl)-4-chlorophenyl)-2-(tetrahydro-2H-pyran-4-yl)acetamide] | 10 to 100 µM
41 | CC(COc1ccccc1-c1c[nH]cn1)c1ccccc1Cl (stereo not drawn) [compound 1109, 4-(2-(2-(2-chlorophenyl)propoxy)phenyl)-1H-imidazole] | 10 to 100 µM
42 | Nc1ccc(CCOc2ccccc2-c2c[nH]cn2)cc1 [compound 1078, 4-(2-(2-(1H-imidazol-4-yl)phenoxy)ethyl) aniline] | 1 to 10 µM
43 | NC(C(=O)Nc1ccc(CCOc2ccccc2-c2c[nH]cn2)c(Cl)c1)C1CCOCC1 (stereo not drawn) [compound 1333, N-(4-(2-(2-(1H-imidazol-4-yl)phenoxy)ethyl)-3-chlorophenyl)-2-amino-2-(tetrahydro-2H-pyran-4-yl)acetamide] | < 1 µM
44 | CC(C)(C)COC(=O)N1CCC(CCOc2ccccc2-c2c[nH]cn2)CC1 [compound 1149, neopentyl 4-(2-(2-(1H-imidazol-4-yl)phenoxy)ethyl)piperidine-1-carboxylate] | 10 to 100 µM
45 | Oc1c(-c2cnc[nH]2)[nH]c2ccccc12 [compound 1048, 2-(1H-imidazol-5-yl)-1H-indol-3-ol] | > 100 µM
46 | Oc1cc(Cl)cc(-c2cnc[nH]2)c1O [compound 1221, 5-chloro-3-(1H-imidazol-5-yl)benzene-1,2-diol] | 1 to 10 µM
47 | CN1CCN(CC(=O)Nc2ccc(CCOc3ccccc3-c3c[nH]cn3)cc2)CC1 [compound 1212, N-(4-(2-(2-(1H-imidazol-4-yl)phenoxy)ethyl)phenyl)-2-(4-methylpiperazin-1-yl)acetamide] | 10 to 100 µM
48 | O=C(COc1ccccc1-c1c[nH]cn1)c1cccc(Br)c1 [compound 953, 2-(2-(1H-imidazol-4-yl)phenoxy)-1-(3-bromo-phenyl)ethanone] | 10 to 100 µM
